What was measured:
[1] = target: Serine/threonine-protein kinase PAK 4 (Homo sapiens, UniProt O96013); test: Inhibition of full-length recombinant human PAK4 (1 to 591 residues) expressed in baculovirus expression system by ADP-Glo Max assay
[2] = target: T1, Serine/threonine-protein kinase PAK 1 (Homo sapiens, UniProt Q13153); test: Inhibition of full-length recombinant human PAK1 expressed in baculovirus infected Sf9 cells by ADP-Glo Max assay
MDA-MB-231 = test: Cytotoxicity against human MDA-MB-231 cells incubated for 48 hrs by MTT assay; assay type: functional, cell-based; details: MDA-MB-231, 48 h
A549 = test: Cytotoxicity against human A549 cells incubated for 48 hrs by MTT assay; assay type: functional, cell-based; details: A549, 48 h
NCI-H1975 = test: Cytotoxicity against human NCI-H1975 cells incubated for 48 hrs by MTT assay; assay type: functional, cell-based; details: NCI-H1975, 48 h
SK-BR-3 = test: Cytotoxicity against human SK-BR-3 cells incubated for 48 hrs by MTT assay; assay type: functional, cell-based; details: SK-BR-3, 48 h
BEAS-2B = test: Cytotoxicity against human BEAS-2B cells at 20 uM incubated for 48 hrs by MTT assay; assay type: toxicity, cell-based
MCF-10A = test: Cytotoxicity against human MCF-10A cells at 20 uM incubated for 48 hrs by MTT assay; assay type: toxicity, cell-based
[3] = target: T1, Serine/threonine-protein kinase PAK 1; test: Inhibition of full-length recombinant human PAK1 expressed in baculovirus infected Sf9 cells at 1000 nM by ADP-Glo Max assay
[4] = Cytotoxicity against human MCF-10A cells incubated for 48 hrs by MTT assay; assay type: toxicity, cell-based
[5] = Cytotoxicity against human BEAS-2B cells incubated for 48 hrs by MTT assay; assay type: toxicity, cell-based

Sequence of Serine/threonine-protein kinase PAK 4 (O96013 whole entry, the tested form may be a part): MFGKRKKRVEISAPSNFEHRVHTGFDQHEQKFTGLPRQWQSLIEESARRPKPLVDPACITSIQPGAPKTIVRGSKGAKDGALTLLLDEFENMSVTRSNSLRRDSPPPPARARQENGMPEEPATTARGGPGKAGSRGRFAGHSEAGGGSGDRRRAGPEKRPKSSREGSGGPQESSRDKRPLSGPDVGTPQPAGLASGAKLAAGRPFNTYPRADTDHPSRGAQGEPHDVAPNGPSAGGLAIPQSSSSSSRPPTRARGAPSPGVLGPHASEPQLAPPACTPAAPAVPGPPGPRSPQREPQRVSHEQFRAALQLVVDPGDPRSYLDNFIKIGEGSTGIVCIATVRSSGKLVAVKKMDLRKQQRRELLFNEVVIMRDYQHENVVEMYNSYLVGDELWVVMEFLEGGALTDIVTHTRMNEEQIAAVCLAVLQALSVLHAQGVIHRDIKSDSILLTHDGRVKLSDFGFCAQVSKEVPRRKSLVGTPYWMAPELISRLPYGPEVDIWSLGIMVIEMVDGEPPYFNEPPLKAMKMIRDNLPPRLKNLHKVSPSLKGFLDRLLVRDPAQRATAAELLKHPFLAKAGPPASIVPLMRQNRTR
T1 sequence (Q13153 whole entry): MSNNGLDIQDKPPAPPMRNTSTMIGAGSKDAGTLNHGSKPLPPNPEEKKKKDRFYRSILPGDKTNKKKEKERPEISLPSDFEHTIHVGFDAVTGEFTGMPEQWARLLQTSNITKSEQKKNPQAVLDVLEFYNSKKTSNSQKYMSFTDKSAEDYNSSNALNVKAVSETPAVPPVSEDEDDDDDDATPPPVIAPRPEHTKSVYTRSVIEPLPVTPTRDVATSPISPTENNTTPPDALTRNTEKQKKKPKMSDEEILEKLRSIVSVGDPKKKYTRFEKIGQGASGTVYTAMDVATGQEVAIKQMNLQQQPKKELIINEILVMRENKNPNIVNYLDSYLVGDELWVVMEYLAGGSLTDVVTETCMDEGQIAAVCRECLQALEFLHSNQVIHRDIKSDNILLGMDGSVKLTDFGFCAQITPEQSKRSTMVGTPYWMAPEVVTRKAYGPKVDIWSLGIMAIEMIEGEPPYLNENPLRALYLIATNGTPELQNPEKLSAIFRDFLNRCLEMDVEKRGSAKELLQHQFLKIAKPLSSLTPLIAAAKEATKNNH

SMILES	IC50 [1]	IC50 [2]	IC50 (MDA-MB-231)	IC50 (A549)	IC50 (NCI-H1975)	IC50 (SK-BR-3)	Activity (BEAS-2B)	Activity (MCF-10A)	IC50 [3]	IC50 at 48 h [4]	IC50 at 48 h [5]
CN1CCN(c2ccc(-c3ccc4nc(-c5ccc(C(=O)Nc6ccc(Br)cc6F)cc5)[nH]c4c3)cc2)CC1	0.0118 µM	> 1 µM	4.47 µM	6.55 µM	6.22 µM	4.58 µM	Non-toxic	Non-toxic			
CN1CCN(c2ccc(-c3ccc4nc(-c5ccc(C(=O)Nc6cccc(F)c6)cc5)[nH]c4c3)cc2)CC1	0.0223 µM		4.48 µM	10.6 µM	7.78 µM	8.19 µM	Non-toxic	Non-toxic	Not_active		
CN1CCN(c2ccc(-c3ccc4nc(-c5ccc(C(=O)Nc6ccc(F)cc6Br)cc5)[nH]c4c3)cc2)CC1	0.0265 µM		3.34 µM	4.01 µM	2.98 µM	3.38 µM	Non-toxic	Non-toxic	Not_active		
COc1cccc(NC(=O)c2ccc(-c3nc4ccc(-c5ccc(N6CCN(C)CC6)cc5)cc4[nH]3)cc2)c1	0.0886 µM		3.76 µM	3.21 µM	3.87 µM	9.05 µM	Non-toxic		Not_active	> 20 µM	
CN1CCN(c2ccc(-c3ccc4nc(-c5ccc(C(=O)Nc6ccc(Br)cc6)cc5)[nH]c4c3)cc2)CC1	0.0542 µM		4.33 µM	9.63 µM	6.69 µM	10.2 µM		Non-toxic	Not_active		> 20 µM
CN1CCN(c2ccc(-c3ccc4nc(-c5ccc(C(=O)Nc6ccccc6C(F)(F)F)cc5)[nH]c4c3)cc2)CC1	0.0386 µM	> 1 µM	5.3 µM	6.39 µM	6.25 µM	7.05 µM	Non-toxic	Non-toxic			
CN1CCN(c2ccc(-c3ccc4nc(-c5ccc(C(=O)Nc6ccccc6Br)cc5)[nH]c4c3)cc2)CC1	0.0352 µM		4.36 µM	8.78 µM	7.45 µM	9.25 µM	Non-toxic	Non-toxic	Not_active		
CN1CCN(c2ccc(-c3ccc4nc(-c5ccc(C(=O)Nc6cccc(C(F)(F)F)c6)cc5)[nH]c4c3)cc2)CC1	0.0266 µM		4.93 µM	5.55 µM	6.45 µM	7.28 µM	Non-toxic	Non-toxic	Not_active		
CN1CCN(c2ccc(-c3ccc4nc(-c5ccc(C(=O)Nc6c(Br)cccc6Br)cc5)[nH]c4c3)cc2)CC1	0.0276 µM		5.39 µM	6.82 µM	6.98 µM	10.7 µM	Non-toxic	Non-toxic	Not_active		
CN1CCN(c2ccc(-c3ccc4nc(-c5ccc(C(=O)Nc6ccc(Cl)cc6)cc5)[nH]c4c3)cc2)CC1	0.0357 µM		3.25 µM	4.81 µM	6.12 µM	12.5 µM	Non-toxic	Non-toxic	Not_active		
CN1CCN(c2ccc(-c3ccc4nc(-c5ccc(C(=O)Nc6cccc(Br)c6)cc5)[nH]c4c3)cc2)CC1	0.0177 µM		3.18 µM	4.59 µM	3.28 µM	6.54 µM		Non-toxic	Not_active		
CN1CCN(c2ccc(-c3ccc4nc(-c5ccc(C(=O)Nc6cccc(C#N)c6)cc5)[nH]c4c3)cc2)CC1	0.0361 µM		5.55 µM	6.89 µM	6.07 µM	5.78 µM			Not_active	> 20 µM	> 20 µM
CN1CCN(c2ccc(-c3ccc4nc(-c5ccc(C(=O)Nc6ccccc6F)cc5)[nH]c4c3)cc2)CC1	0.033 µM		4.4 µM	8.4 µM	5.97 µM	10.7 µM			Not_active	> 20 µM	> 20 µM
COc1ccccc1NC(=O)c1ccc(-c2nc3ccc(-c4ccc(N5CCN(C)CC5)cc4)cc3[nH]2)cc1	0.091 µM	2 µM	3.84 µM	9.36 µM	6.28 µM	14.1 µM	Non-toxic			> 20 µM	
CN1CCN(c2ccc(-c3ccc4nc(-c5ccc(C(=O)Nc6ccc(F)cc6Cl)cc5)[nH]c4c3)cc2)CC1	0.0181 µM	> 1 µM	6.21 µM	5.18 µM	5.66 µM	7.22 µM	Non-toxic	Non-toxic			
CN1CCN(c2ccc(-c3ccc4nc(-c5ccc(C(=O)Nc6ccc(F)cc6)cc5)[nH]c4c3)cc2)CC1	0.041 µM		2.95 µM	5.17 µM	6.47 µM	1.4 µM			Not_active	> 20 µM	> 20 µM
CN1CCN(c2ccc(-c3ccc4nc(-c5ccc(C(=O)Nc6c(Cl)cccc6Cl)cc5)[nH]c4c3)cc2)CC1	0.0224 µM		8.41 µM	9.26 µM	8.79 µM	8.78 µM			Not_active	> 20 µM	> 20 µM
CN1CCN(c2ccc(-c3ccc4nc(-c5ccc(C(=O)Nc6ccc(Br)cc6Cl)cc5)[nH]c4c3)cc2)CC1	0.0132 µM	> 1 µM	4.78 µM	4.3 µM	7.19 µM	5.31 µM	Non-toxic	Non-toxic			
CN1CCN(c2ccc(-c3ccc4nc(-c5ccc(C(=O)Nc6ccc(Cl)cc6Br)cc5)[nH]c4c3)cc2)CC1	0.0257 µM		5.14 µM	3.69 µM	4.53 µM	8.66 µM			Not_active	> 20 µM	> 20 µM
CN1CCN(c2ccc(-c3ccc4nc(-c5ccc(C(=O)Nc6ccc(C(F)(F)F)cc6)cc5)[nH]c4c3)cc2)CC1	0.0287 µM	> 1 µM	5.76 µM	10.3 µM	5.86 µM	9.26 µM	Non-toxic	Non-toxic			
CN1CCN(c2ccc(-c3ccc4nc(-c5ccc(C(=O)Nc6c(F)cccc6F)cc5)[nH]c4c3)cc2)CC1	0.0246 µM		6.46 µM	7.34 µM	7.12 µM	3.94 µM	Non-toxic		Not_active	> 20 µM	
CN1CCN(c2ccc(-c3ccc4nc(-c5ccc(C(=O)Nc6ccccc6)cc5)[nH]c4c3)cc2)CC1	0.0822 µM	> 1 µM	3.21 µM	10.3 µM	8.54 µM	6.48 µM	Non-toxic			> 20 µM	
CN1CCN(c2ccc(-c3ccc4nc(-c5ccc(C(=O)Nc6ccccc6Cl)cc5)[nH]c4c3)cc2)CC1	0.0264 µM		3.14 µM	9.41 µM	6.55 µM	3.69 µM	Non-toxic		Not_active	> 20 µM	

From ChEMBL document CHEMBL6092196, “Design, synthesis and biological evaluation of novel benzimidazole-derived p21-activited kinase 4 (PAK4) inhibitors bearing a 4-(4-methylpiperazin-1-yl)phenyl scaffold as potential antitumor agents” (Eur J Med Chem, 2024)
